# Read-outs that look alike come from different tables or passages of the source. Non-standard residues stand in square brackets, D forms with d. Residues, ends and D or L forms follow the SMILES beside them. *: point of attachment. Dip = N[C@H](C(=O)O)C(c1ccccc1)c1ccccc1; Phe(2-Br) = N[C@@H](Cc1ccccc1Br)C(=O)O; 2Nal = N[C@@H](Cc1ccc2ccccc2c1)C(=O)O; Met(O2) = CS(=O)(=O)CC[C@H](N)C(=O)O; Bta = N[C@@H](Cc1csc2ccccc12)C(=O)O; NH(4-Me-benzyl) = Cc1ccc(CN*)cc1; NMeE = CN[C@@H](CCC(=O)O)C(=O)O; 3Thi = N[C@@H](Cc1ccsc1)C(=O)O; Cha = N[C@@H](CC1CCCCC1)C(=O)O; Cit = NC(=O)NCCC[C@H](N)C(=O)O; aThr = C[C@H](O)[C@H](N)C(=O)O; X7 = c1ccc(-c2ccc(N*)cc2)cc1; Pip = O=C(O)[C@@H]1CCCCN1; Ac6c = NC1(C(=O)O)CCCCC1; Piperidide = C1CCN(*)CC1; βNA = c1ccc2cc(N*)ccc2c1; 2Abz = Nc1ccccc1C(=O)O; Acryloyl = C=CC(=O)*; ClAc = O=C(CCl)*
# Target: Pin1 (GST-Pin1) (Homo sapiens, UniProt Q13526)
# Assay: Fluorescence polarization (FP) assay, binding to Pin1
# Details: competition with fluorescein-labeled peptide probe, 12 hours pre-incubation at 4° C., Kenakin Ki equation
# Pin1 (GST-Pin1), sequence (Q13526 whole entry): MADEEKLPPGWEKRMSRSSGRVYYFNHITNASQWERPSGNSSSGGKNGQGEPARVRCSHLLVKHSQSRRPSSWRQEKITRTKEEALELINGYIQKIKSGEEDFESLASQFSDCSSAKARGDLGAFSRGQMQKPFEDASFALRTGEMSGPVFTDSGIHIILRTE
"Ki (read-out: Ki, μM (FP Assay))",SMILES,"Ki (Ki, μM (FP Assay))"
0.07 µM,"CN(C(=O)CCl)[C@@H](CCC(=O)O)C(=O)N1CCCC[C@H]1C(=O)N[C@@H](Cc1c[nH]c2ccccc12)C(=O)N[C@@H](Cc1ccc(O)cc1)C(N)=O [Compound 2-31, (S)-5-((S)-2-(((S)-1-(((S)-1-Amino-3-(4-hydroxyphenyl)-1-oxopropan-2-yl)amino)-3-(1H-indol-3-yl)-1-oxopropan-2-yl)carbamoyl)piperidin-1-yl)-4-(2-chloro-N-methylacetamido)-5-oxopentanoic acid] (ClAc-[NMeE][Pip]WY-NH2)",
,"COC(=O)CC[C@H](NC(=O)CCl)C(=O)N1CCCC[C@H]1C(=O)N[C@@H](Cc1c[nH]c2ccccc12)C(=O)N[C@@H](Cc1ccccc1Br)C(=O)NCc1ccc(C)cc1 [Compound 11-27, Methyl (S)-5-((S)-2-(((S)-1-(((S)-3-(2-bromophenyl)-1-((4-methylbenzyl)amino)-1-oxopropan-2-yl)amino)-3-(1H-indol-3-yl)-1-oxopropan-2-yl)carbamoyl)piperidin-1-yl)-4-(2-chloroacetamido)-5-oxopentanoate] (ClAc-E(OMe)[Pip]W[Phe(2-Br)]-{NH(4-Me-benzyl)})",> 10 µM
,"COC(=O)CC[C@H](NC(=O)CCl)C(=O)N1CCCC[C@H]1C(=O)N[C@@H](Cc1csc2ccccc12)C(=O)N[C@@H](CCCNC(N)=O)C(=O)NCc1ccc(C)cc1 [Compound 11-21, Methyl (S)-5-((S)-2-(((S)-3-(benzo[&]thiophen-3-yl)-1-(((S)-1-((4-methylbenzyl)amino)-1-oxo-5-ureidopentan-2-yl)amino)-1-oxopropan-2-yl)carbamoyl)piperidin-1-yl)-4-(2-chloroacetamido)-5-oxopentanoate] (ClAc-E(OMe)[Pip][Bta][Cit]-{NH(4-Me-benzyl)})",0.015 µM
,"COC(=O)CC[C@H](NC(=O)CCl)C(=O)N1CCCC[C@H]1C(=O)N[C@@H](Cc1c[nH]c2ccccc12)C(=O)N[C@@H](CCCNC(N)=O)C(=O)Nc1ccc2ccccc2c1 [Compound 11-8, Methyl (S)-5-((S)-2-(((S)-3-(1H-indol-3-yl)-1-(((S)-1-(naphthalen-2-ylamino)-1-oxo-5-ureidopentan-2-yl)amino)-1-oxopropan-2-yl)carbamoyl)piperidin-1-yl)-4-(2-chloroacetamido)-5-oxopentanoate] (ClAc-E(OMe)[Pip]W[Cit]-βNA)",0.15 µM
,"COC(=O)CC[C@H](NC(=O)CCl)C(=O)N1CCCC[C@H]1C(=O)N[C@@H](Cc1c[nH]c2ccccc12)C(=O)N[C@@H](Cc1ccsc1)C(=O)NCc1ccc(C)cc1 [Compound 11-29, Methyl (S)-5-((S)-2-(((S)-3-(1H-indol-3-yl)-1-(((S)-1-((4-methylbenzyl)amino)-1-oxo-3-(thiophen-3-yl)propan-2-yl)amino)-1-oxopropan-2-yl)carbamoyl)piperidin-1-yl)-4-(2-chloroacetamido)-5-oxopentanoate] (ClAc-E(OMe)[Pip]W[3Thi]-{NH(4-Me-benzyl)})",1.01 µM
0.122 µM,"C[C@H](O)[C@H](NC(=O)CCl)C(=O)N1CCCC[C@H]1C(=O)N[C@@H](Cc1c[nH]c2ccccc12)C(=O)N[C@@H](CCCNC(N)=O)C(N)=O [Compound 2-20, (S)—N—((S)-1-(((S)-1-Amino-1-oxo-5-ureidopentan-2-yl)amino)-3-(1H-indol-3-yl)-1-oxopropan-2-yl)-1-((2-chloroacetyl)-L-allothreonyl)piperidine-2-carboxamide] (ClAc-[aThr][Pip]W[Cit]-NH2)",
0.13 µM,"CS(=O)(=O)CC[C@H](NC(=O)CCl)C(=O)N1CCCC[C@H]1C(=O)N[C@@H](Cc1ccc2ccccc2c1)C(=O)N[C@@H](CCCNC(N)=O)C(N)=O [Compound 2-14, (S)—N—((S)-1-(((S)-1-Amino-1-oxo-5-ureidopentan-2-yl)amino)-3-(naphthalen-2-yl)-1-oxopropan-2-yl)-1-((S)-2-(2-chloroacetamido)-4-(methylsulfonyl)butanoyl)piperidine-2-carboxamide] (ClAc-[Met(O2)][Pip][2Nal][Cit]-NH2)",
,"NC(=O)NCCC[C@H](NC(=O)[C@H](Cc1ccc2ccccc2c1)NC(=O)C1(NC(=O)[C@H](CCC(=O)O)NC(=O)CCl)CCCCC1)C(N)=O [Compound 2-10, (S)-5-((1-(((S)-1-(((S)-1-Amino-1-oxo-5-ureidopentan-2-yl)amino)-3-(naphthalen-2-yl)-1-oxopropan-2-yl)carbamoyl)cyclohexyl)amino)-4-(2-chloroacetamido)-5-oxopentanoic acid] (ClAc-E[Ac6c][2Nal][Cit]-NH2)",> 10 µM
> 10 µM,"C=CC(=O)N[C@H](CCC(=O)O)C(=O)N1CCCC[C@H]1C(=O)N[C@@H](Cc1ccc2ccccc2c1)C(=O)N[C@@H](CCC(N)=O)C(N)=O [Compound 2b-2, (R)-4-Acrylamido-5-((S)-2-(((S)-1-(((S)-1,5-diamino-1,5-dioxopentan-2-yl)amino)-3-(naphthalen-2-yl)-1-oxopropan-2-yl)carbamoyl)piperidin-1-yl)-5-oxopentanoic acid] (Acryloyl-[dE][Pip][2Nal]Q-NH2)",
> 10 µM,"CS(=O)(=O)CC[C@H](NC(=O)CCl)C(=O)N1CCCC[C@H]1C(=O)N[C@@H](Cc1ccc2ccccc2c1)C(=O)N[C@@H](CCC(N)=O)C(N)=O [Compound 2-3, (S)-2-((S)-2-((S)-1-((S)-2-(2-Chloroacetamido)-4-(methylsulfonyl)butanoyl)piperidine-2-carboxamido)-3-(naphthalen-2-yl)propanamido)pentanediamide] (ClAc-[Met(O2)][Pip][2Nal]Q-NH2)",
0.61 µM,"NC(=O)NCCC[C@H](NC(=O)[C@H](Cc1ccc2ccccc2c1)NC(=O)[C@@H]1CCCCN1C(=O)C[C@H](CCC(=O)O)N1C(=O)C=CC1=O)C(N)=O [Compound 5-1, (S)-6-((S)-2-(((S)-1-(((S)-1-Amino-1-oxo-5-ureidopentan-2-yl)amino)-3-(naphthalen-2-yl)-1-oxopropan-2-yl)carbamoyl)piperidin-1-yl)-4-(2,5-dioxo-2,5-dihydro-1H-pyrrol-1-yl)-6-oxohexanoic acid]",
> 10 µM,"NC(=O)NCCC[C@H](NC(=O)[C@H](Cc1ccc2ccccc2c1)NC(=O)c1ccccc1NC(=O)[C@H](CCC(=O)O)NC(=O)CCl)C(N)=O [Compound 2-16, (S)-5-((2-(((S)-1-(((S)-1-Amino-1-oxo-5-ureidopentan-2-yl)amino)-3-(naphthalen-2-yl)-1-oxopropan-2-yl)carbamoyl)phenyl)amino)-4-(2-chloroacetamido)-5-oxopentanoic acid] (ClAc-E[2Abz][2Nal][Cit]-NH2)",
0.299 µM,"C[C@H](O)[C@H](NC(=O)CCl)C(=O)N1CCCC[C@H]1C(=O)N[C@@H](Cc1c[nH]c2ccccc12)C(=O)N[C@@H](Cc1ccc(O)cc1)C(N)=O [Compound 2-26, (S)—N—((S)-1-(((S)-1-Amino-3-(4-hydroxyphenyl)-1-oxopropan-2-yl)amino)-3-(1H-indol-3-yl)-1-oxopropan-2-yl)-1-((2-chloroacetyl)-L-allothreonyl)piperidine-2-carboxamide] (ClAc-[aThr][Pip]WY-NH2)",
,"COC(=O)CC[C@H](NC(=O)CCl)C(=O)N1CCCC[C@H]1C(=O)N[C@@H](Cc1c[nH]c2ccccc12)C(=O)N[C@@H](CCCNC(N)=O)C(=O)Nc1ccc(-c2ccccc2)cc1 [Compound 11-17, Methyl (S)-5-((S)-2-(((S)-1-(((S)-1-([1,1′-biphenyl]-4-ylamino)-1-oxo-5-ureidopentan-2-yl)amino)-3-(1H-indol-3-yl)-1-oxopropan-2-yl)carbamoyl)piperidin-1-yl)-4-(2-chloroacetamido)-5-oxopentanoate] (ClAc-E(OMe)[Pip]W[Cit]-X7)",> 10 µM
> 10 µM,"C=CC(=O)N[C@H](CC(=O)O)C(=O)N1CCCC[C@H]1C(=O)N[C@@H](Cc1ccc2ccccc2c1)C(=O)N[C@@H](CCC(N)=O)C(N)=O [Compound 2-34, (R)-3-Acrylamido-4-((S)-2-(((S)-1-(((S)-1,5-diamino-1,5-dioxopentan-2-yl)amino)-3-(naphthalen-2-yl)-1-oxopropan-2-yl)carbamoyl)piperidin-1-yl)-4-oxobutanoic acid] (Acryloyl-[dD][Pip][2Nal]Q-NH2)",
> 10 µM,"CC(=O)N[C@@H](CCC(=O)O)C(=O)N1CCCC[C@H]1C(=O)N[C@@H](Cc1ccc2ccccc2c1)C(=O)N[C@@H](CCCNC(N)=O)C(N)=O [Compound 2-19, (S)-4-Acetamido-5-((S)-2-(((S)-1-(((S)-1-amino-1-oxo-5-ureidopentan-2-yl)amino)-3-(naphthalen-2-yl)-1-oxopropan-2-yl)carbamoyl)piperidin-1-yl)-5-oxopentanoic acid] (Ac-E[Pip][2Nal][Cit]-NH2)",
0.85 µM,"N=C(N)NCCC[C@H](NC(=O)[C@@H](NC(=O)[C@@H]1CCCCN1C(=O)[C@H](CCC(=O)O)NC(=O)CCl)C(c1ccccc1)c1ccccc1)C(N)=O [Compound 2b-10, (S)-5-((S)-2-(((S)-1-(((S)-1-Amino-5-guanidino-1-oxopentan-2-yl)amino)-1-oxo-3,3-diphenylpropan-2-yl)carbamoyl)piperidin-1-yl)-4-(2-chloroacetamido)-5-oxopentanoic acid] (ClAc-E[Pip][Dip]R-NH2)",
,"NC(=O)NCCC[C@H](NC(=O)[C@H](Cc1ccc2ccccc2c1)NC(=O)[C@H](CC1CCCCC1)NC(=O)[C@H](CCC(=O)O)NC(=O)CCl)C(N)=O [Compound 2-15, (6S,9S,12S,15S)-1-Amino-6-carbamoyl-15-(2-chloroacetamido)-12-(cyclohexylmethyl)-9-(naphthalen-2-ylmethyl)-1,8,11,14-tetraoxo-2,7,10,13-tetraazaoctadecan-18-oic acid] (ClAc-E[Cha][2Nal][Cit]-NH2)",> 10 µM

SMILES,"Ki (read-out: Ki, μM (FP Assay))","Ki (Ki, μM (FP Assay))"
"O=C(CCl)N[C@@H](Cc1ccccc1)C(=O)N1CCCC[C@H]1C(=O)N[C@@H](Cc1c[nH]c2ccccc12)C(=O)N[C@@H](Cc1ccccc1)C(=O)N1CCCCC1 [Compound 11-41, (S)—N—((S)-3-(1H-Indol-3-yl)-1-oxo-1-(((S)-1-oxo-3-phenyl-1-(piperidin-1-yl)propan-2-yl)amino)propan-2-yl)-1-((2-chloroacetyl)-L-phenylalanyl)piperidine-2-carboxamide] (ClAc-F[Pip]WF-Piperidide)",0.151 µM,

# Source: US20210238225A1, “PEPTIDOMIMETIC INHIBITORS OF THE PEPTIDYL-PROLYL CIS/TRANS ISOMERASE (PIN1)” (DANA-FARBER CANCER INSTITUTE, INC., priority 2018, published 2021)
